These results are taken from patent US11957671B2, “Benzodioxane modulators of leukotriene A4 hydrolase (LTA4H) for prevention and treatment of aging-associated diseases” (Alkahest, Inc., priority 2021, dated 2024).

Each structure is given as a SMILES string.

The test deals with synthesis of LTB4 in human whole blood. Briefly: human whole blood (HWB) assay, LTB4 production inhibition. Format: cell-based. As to conditions: calcimycin 20 μM. The protocol: The compounds of the invention are additionally tested in a human whole blood (HWB) assay to determine their ability to inhibit the synthesis of LTB4 in a cellular system. Compounds are combined with heparinized human whole blood and incubated for 15 minutes at 37° C. Calcimycin (20 μM final, prepared in phosphate-buffered saline, pH 7.4) is then added and the mixture is incubated for another 30 minutes at 37° C. The samples are centrifuged for 5 min at low speed (1500×g) and the plasma layer is removed. Plasma LTB4 concentrations are then measured using an antibody-based homogenous time-resolved fluorescence method (CisBio, Bedford, Mass.). In general, the preferred potency range (IC50) of compounds in the HWB assay is between 10 nM to 10 μM, the more preferred potency range is 10 nM to 1 μM, and the most preferred potency range is 10 nM to 100 nM.

One may read the IC50 as the point on the concentration scale where inhibition reaches its midpoint. As to `O=C1CCCN1CC1CCCN(Cc2ccc(C3COc4ccccc4O3)cc2)C1` (racemic) [Example 10, 1-({1-[4-(2,3-dihydro-1,4-benzodioxin-2-yl)benzyl]piperidin-3-yl}methyl)pyrrolidin-2-one], the IC50 stood at 0.352 µM.

Turning to `c1cnc2c(c1)OCC(c1ccc(CN3CCOCC3)cc1)O2` (racemic) [Example 18, 3-[4-(morpholin-4-ylmethyl)phenyl]-2,3-dihydro[1,4]dioxino[2,3-b]pyridine], the IC50 amounted to 0.176 µM. `CNC(=O)C1CCN(Cc2ccc(C3COc4ccccc4O3)cc2)CC1` (racemic) [Example 25, 1-[4-(2,3-dihydro-1,4-benzodioxin-2-yl)benzyl]-N-methylpiperidine-4-carboxamide]: the concentration for half-maximal inhibition (IC50) was found to be 0.294 µM. For `O=C(O)CCCC1CCN(Cc2ccc(C3COc4ccccc4O3)cc2)CC1` (racemic) [Example 26, 4-{1-[4-(2,3-dihydro-1,4-benzodioxin-2-yl)benzyl]piperidin-4-yl}butanoic acid], the half-maximal inhibitory concentration (IC50) is 0.308 µM. Consider `O=C(C1CCN(Cc2ccc(C3COc4ccccc4O3)cc2)CC1)N1CCOCC1` (racemic) [Example 37, {1-[4-(2,3-dihydro-1,4-benzodioxin-2-yl)benzyl]piperidin-4-yl}(morpholin-4-yl)methanone], for which the IC50 turned out to be 0.324 µM. With `O=C(NCCO)C1CCN(Cc2ccc(C3COc4ccccc4O3)cc2)CC1` (racemic) [Example 52, 1-[4-(2,3-dihydro-1,4-benzodioxin-2-yl)benzyl]-N-(2-hydroxyethyl)piperidine-4-carboxamide], the IC50 amounted to 0.145 µM. Regarding `NC(=O)NC1CCN(Cc2ccc(C3COc4ccccc4O3)cc2)CC1` (racemic) [Example 53, 1-{1-[4-(2,3-dihydro-1,4-benzodioxin-2-yl)benzyl]piperidin-4-yl}urea], the IC50 amounted to 0.155 µM. Turning to `O[C@H]1CCN(Cc2ccc(C3COc4ccccc4O3)cc2)C1` (stereo partly drawn) [Example 9, (3S)-1-[4-(2,3-dihydro-1,4-benzodioxin-2-yl)benzyl]pyrrolidin-3-ol], the half-inhibitory concentration (IC50) came out at 0.285 µM. The same measure for `O=C(O)C1CCN(Cc2ccc([C@H]3COc4ccccc4O3)cc2)C1` (stereo partly drawn) [Example 61, 1-{4-[(2S)-2,3-dihydro-1,4-benzodioxin-2-yl]benzyl}pyrrolidine-3-carboxylic acid]: 0.25 µM.

On to `CC(=O)N1CC[C@@H](NCc2ccc([C@H]3COc4ccccc4O3)cc2)C1` [Example 64, 1-[(3R)-3-({4-[(2S)-2,3-dihydro-1,4-benzodioxin-2-yl]benzyl}amino)pyrrolidin-1-yl]ethanone], for which the IC50 stood at 0.158 µM. To `CN(Cc1ccc([C@H]2COc3ccccc3O2)cc1)C1CCCCC1` [Example 67, N-{4-[(2S)-2,3-dihydro-1,4-benzodioxin-2-yl]benzyl}-N-methylcyclohexanamine] belongs 0.346 µM. Turning to `CC1CCCCN1Cc1ccc([C@H]2COc3ccccc3O2)cc1` (stereo partly drawn) [Example 68, 1-{4-[(2S)-2,3-dihydro-1,4-benzodioxin-2-yl]benzyl}-2-methylpiperidine], the IC50 was found to be 0.0807 µM. Regarding `OCC1CCCN(Cc2ccc([C@H]3COc4ccccc4O3)cc2)C1` (stereo partly drawn) [Example 69, (1-{4-[(2S)-2,3-dihydro-1,4-benzodioxin-2-yl]benzyl}piperidin-3-yl)methanol], the IC50 was found to be 0.165 µM. For `CN(Cc1ccc([C@H]2COc3ccccc3O2)cc1)C(C)(C)C` [Example 81, N-{4-[(2S)-2,3-dihydro-1,4-benzodioxin-2-yl]benzyl}-N,2-dimethylpropan-2-amine], the concentration for half-maximal inhibition (IC50) turned out to be 0.0807 µM. Regarding `CC(=O)N(C)C1CCN(Cc2ccc([C@H]3COc4ccccc4O3)cc2)C1` (stereo partly drawn) [Example 83, N-(1-{4-[(2S)-2,3-dihydro-1,4-benzodioxin-2-yl]benzyl}pyrrolidin-3-yl)-N-methylacetamide], the concentration for half-maximal inhibition (IC50) stood at 0.0335 µM.

In the case of `c1ccc2c(c1)OC[C@H](c1ccc(CN3CCC[C@H]4CCCC[C@@H]43)cc1)O2` [Example 85, (4aR,8aS)-1-{4-[(2S)-2,3-dihydro-1,4-benzodioxin-2-yl]benzyl}decahydroquinoline], the 50% inhibitory concentration (IC50) is 0.305 µM. To `OC[C@H]1CCCC[C@H]1NCc1ccc([C@H]2COc3ccccc3O2)cc1` [Example 87, [(1S,2R)-2-({4-[(2S)-2,3-dihydro-1,4-benzodioxin-2-yl]benzyl)amino)cyclohexyl] methanol] belongs 0.268 µM; to `COC1CCN(Cc2ccc([C@H]3COc4ccccc4O3)cc2)CC1` [Example 98, 1-{4-[(2S)-2,3-dihydro-1,4-benzodioxin-2-yl]benzyl}-4-methoxypiperidine], 0.18 µM.

Consider `O=C1CCCN1CC1CCN(Cc2ccc([C@H]3COc4ccccc4O3)cc2)CC1` [Example 99, 1-[(1-{4-[(2S)-2,3-dihydro-1,4-benzodioxin-2-yl]benzyl}piperidin-4-yl)methyl]pyrrolidin-2-one], for which the IC50 came out at 0.0954 µM. Take `CCN(Cc1ccc([C@H]2COc3ccccc3O2)cc1)C1CCCC1` [Example 109, N-{4-[(2S)-2,3-dihydro-1,4-benzodioxin-2-yl]benzyl}-N-ethylcyclopentanamine]: the IC50 was 0.0755 µM. To `O=C1NCCCC12CCN(Cc1ccc([C@H]3COc4ccccc4O3)cc1)CC2` [Example 116, 9-{4-[(2S)-2,3-dihydro-1,4-benzodioxin-2-yl]benzyl}-2,9-diazaspiro[5.5]undecan-1-one] belongs 0.31 µM; to `CC(=O)N1CCCC12CCN(Cc1ccc([C@H]3COc4ccccc4O3)cc1)C2` (stereo partly drawn) [Example 118, 1-(7-{4-[(2S)-2,3-dihydro-1,4-benzodioxin-2-yl]benzyl}-1,7-diazaspiro[4.4]non-1-yl)ethanone], 0.256 µM. In the case of `CN1CCC2(CCN(Cc3ccc([C@H]4COc5ccccc5O4)cc3)CC2)C1=O` [Example 121, 8-{4-[(2S)-2,3-dihydro-1,4-benzodioxin-2-yl]benzyl}-2-methyl-2,8-diazaspiro[4.5]decan-1-one], the IC50 was 0.159 µM. On to `NC(=O)CN1CCCC12CCN(Cc1ccc([C@H]3COc4ccccc4O3)cc1)C2` (stereo partly drawn) [Example 123, 2-(7-{4-[(2S)-2,3-dihydro-1,4-benzodioxin-2-yl]benzyl}-1,7-diazaspiro[4.4]non-1-yl)acetamide], for which the half-inhibitory concentration (IC50) came out at 0.312 µM. The same measure for `O=C1NCCC12CCN(Cc1ccc([C@H]3COc4cccnc4O3)cc1)CC2` [Example 125, 8-{4-[(3S)-2,3-dihydro[1,4]dioxino[2,3-b]pyridin-3-yl]benzyl}-2,8-diazaspiro[4.5]decan-1-one]: 0.0392 µM; for `c1cnc2c(c1)OC[C@H](c1ccc(CN3CCCC3)cc1)O2` [Example 126, (3S)-3-[4-(pyrrolidin-1-ylmethyl)phenyl]-2,3-dihydro[1,4]dioxino[2,3-b]pyridine]: 0.0323 µM.

As to `O=C(O)CCC1CCN(Cc2ccc([C@H]3COc4ccccc4O3)cc2)CC1` [Example 134, 3-(1-{4-[(2S)-2,3-dihydro-1,4-benzodioxin-2-yl]benzyl}piperidin-4-yl)propanoic acid], the 50% inhibitory concentration (IC50) came out at 0.0946 µM. To `CC1CCN(Cc2ccc([C@H]3COc4cccnc4O3)cc2)CC1` [Example 137, (3S)-3-{4-[(4-methylpiperidin-1-yl)methyl]phenyl}-2,3-dihydro[1,4]dioxino[2,3-b]pyridine] belongs 0.0276 µM; to `CN(CCc1ccccn1)Cc1ccc([C@H]2COc3cccnc3O2)cc1` [Example 138, N-{4-[(3S)-2,3-dihydro[1,4]dioxino[2,3-b]pyridin-3-yl]benzyl}-N-methyl-2-(pyridin-2-yl)ethanamine], 0.076 µM. The same measure for `c1cnc2c(c1)OC[C@H](c1ccc(CN3CCCCCC3)cc1)O2` [Example 139, (3S)-3-[4-(azepan-1-ylmethyl)phenyl]-2,3-dihydro[1,4]dioxino[2,3-b]pyridine]: 0.0132 µM; for `CCN(C)Cc1ccc([C@H]2COc3cccnc3O2)cc1` [Example 140, N-{4-[(3S)-2,3-dihydro[1,4]dioxino[2,3-b]pyridin-3-yl]benzyl}-N-methylethanamine]: 0.0334 µM; for `CCN(CC)Cc1ccc([C@H]2COc3cccnc3O2)cc1` [Example 141, N-{4-[(3S)-2,3-dihydro[1,4]dioxino[2,3-b]pyridin-3-yl]benzyl}-N-ethylanamine]: 0.0328 µM.

On to `CN(Cc1ccc([C@H]2COc3cccnc3O2)cc1)C1CCCC1` [Example 142, N-{4-[(3S)-2,3-dihydro[1,4]dioxino[2,3-b]pyridin-3-yl]benzyl}-N-methylcyclopentanamine], for which the IC50 is 0.0244 µM. Consider `c1cnc2c(c1)OC[C@H](c1ccc(CN3[C@H]4CC[C@@H]3CC4)cc1)O2` [Example 145, (3S)-3-{4-[(1s,4s)-7-azabicyclo[2.2.1]hept-7-ylmethyl]phenyl}-2,3-dihydro[1,4]dioxino[2,3-b]pyridine], for which the 50% inhibitory concentration (IC50) came to 0.0284 µM. In the case of `FC1CCN(Cc2ccc([C@H]3COc4cccnc4O3)cc2)CC1` [Example 155, (3S)-3-{4-[(4-fluoropiperidin-1-yl)methyl]phenyl}-2,3-dihydro[1,4]dioxino[2,3-b]pyridine], the IC50 was found to be 0.0954 µM. As to `c1cnc2c(c1)OC[C@H](c1ccc(CN3CCn4cnnc4C3)cc1)O2` [Example 156, (3S)-3-[4-(5,6-dihydro[1,2,4]triazolo[4,3-a]pyrazin-7(8H)-ylmethyl)phenyl]-2,3-dihydro[1,4]dioxino[2,3-b]pyridine], the 50% inhibitory concentration (IC50) worked out at 0.159 µM. For the compound `CC(C)(CN1CCCC1)NCc1ccc([C@H]2COc3cccnc3O2)cc1` [Example 157, N-{4-[(3S)-2,3-dihydro[1,4]dioxino[2,3-b]pyridin-3-yl]benzyl}-2-methyl-1-(pyrrolidin-1-yl)propan-2-amine], the IC50 turned out to be 0.035 µM. With `COC1CCCN(Cc2ccc([C@H]3COc4cccnc4O3)cc2)C1` (stereo partly drawn) [Example 158, (3S)-3-{4-[(3-methoxypiperidin-1-yl)methyl]phenyl}-2,3-dihydro[1,4]dioxino[2,3-b]pyridine], the concentration for half-maximal inhibition (IC50) worked out at 0.0275 µM.
